Laboratory results as given in a melting point compilation (Tetko et al.).

Structure (SMILES)	melting point [°C]
NC(CC(=O)O)C(F)(F)F (stereo not given)	185 to 190
CC(=O)OC(/C=C/c1ccccc1)=NNC(N)=O	174
O=C1OC(c2ccccc2)=NC1=Cc1ccccc1F	148 to 149
C=C1C(=O)C23C(OC)CC4C5(C)CCCC4(COC5OC(C)=O)C2C(OC(C)=O)CC1C3OC(C)=O (stereo not given)	214
NS(=O)(=O)c1cc(C(=O)OCOC(=O)c2ccccc2)c(NCc2ccco2)cc1Cl	179
CN(c1c(F)c(F)c(-c2c(F)c(F)c(F)c(F)c2F)c(F)c1F)[N+](=O)[O-]	140
CC(CC(C(N)=O)(c1ccccc1)c1ccccc1)N(C)C (stereo not given)	137
COc1cc2noc(-c3ccc(C)o3)c2cc1OC	146
COc1cc(-c2nnc3sc(-c4cccnc4)nn23)cc(OC)c1OC	175
O=C(CBr)c1ccc(Oc2ccccc2)cc1	49 to 50
O=C(OC1C(=O)OC(=O)C1OC(=O)c1ccccc1)c1ccccc1 (stereo not given)	174
Cc1cccc(C)c1N(C(=O)CCl)C1CCOC1=O (stereo not given)	146
NCCCCCCCCCCCCN	70
NC(=O)c1cccc(CCl)c1	125 to 127
CCCCCCCCOC(=O)CCCCCCC	-18.1
CCCc1ccc(C(=O)CCC(=O)O)cc1	117 to 119
Nc1nc(N)c(N=O)c(N)n1	300
NCc1cc(C(F)(F)F)cc(C(F)(F)F)c1	57
O=C(O)c1c(Cl)c(Cl)c(Cl)c(Cl)c1C(=O)Nc1cccc(Cl)c1Cl	198
Nc1ccc(N)c2c1C(=O)c1c(N)ccc(N)c1C2=O	285
COC(=O)CC#N	-13

Structure (SMILES)	melting point [°C]
CC(=O)OCCOc1cc(OC(C)=O)c2c(=O)c(OC(C)=O)c(-c3ccc(OCCOC(C)=O)c(OCCOC(C)=O)c3)oc2c1	96 to 97
CCOC(=O)CN=C(c1ccccc1)c1ccccc1	53
O=C(Oc1c(F)c(F)c(F)c(F)c1F)c1csc(-c2cccnc2)n1	136 to 137
CC1(O)CNC(=O)C1 (stereo not given)	140
NC(=O)/C(=N\Nc1c(Cl)cccc1Cl)c1nc2ccccc2s1	175
O=CCCCCC=O	-8
Cc1ccccc1C(=O)Nc1cccc(OC(C)C)c1	92.5
CC1(c2ccccc2)CC(C(=O)c2cc3ccccc3o2)C1 (stereo not given)	156 to 157
CN1C(=O)C(=NNC(N)=S)c2ccccc21	245
CCCCCCCCC(Br)C(=O)O (stereo not given)	4
O=C(Nc1ccccc1Br)Nc1ccccc1Br	235 to 237
N#Cc1cccc(C[C@H](NC(=O)OCC2c3ccccc3-c3ccccc32)C(=O)O)c1	116
CNC(=O)Oc1ccc(SC)c(C)c1	118
CCOC(=O)Cc1ccncc1	19
N#Cc1ccc(N2CCNCC2)cc1	82 to 84
CCCC(C)C1(CC)C(=O)NC(=S)NC1=O (stereo not given)	130
O=C(Nc1nc2ccccc2s1)C(C(F)(F)F)C(F)(F)F	174
CCOC(=O)c1c[nH]c(S)n1	191 to 193
NC(COc1ccc(C2SCCS2)cc1)=NO	113 to 115
CSc1nc(N)cc(N)n1	189 to 193
NS(=O)(=O)c1cc(-c2nnn[nH]2)c(NCc2cccs2)cc1Cl	220

Structure (SMILES)	melting point [°C]
Brc1cc2c(cc1Br)Oc1cc(Br)c(Br)cc1O2	334
CCc1oc2ccccc2c1C(=O)c1cc(Br)c(O)c(Br)c1	151
CC1=NC2(CCCCC2)[N+]([O-])=C1	112 to 116
CN(C(=S)Cl)c1ccccc1	31 to 34
CCCCCCCCCCCCCCCCCCCCCCCCCCCCCC[Si](Cl)(Cl)Cl	60 to 80
CN(C)CCc1ccc(O)cc1	118
CC1CC(OC(=O)c2ccccc2)CC(C)(C)N1 (stereo not given)	70.5
CCOC(=O)c1ccccc1C(=O)OCC	-40.5
Nc1ccc(-c2ccc(NNc3ccccc3)cc2)cc1	140
O=c1[nH]c2ccccc2n1C1=CCNCC1	195 to 200
Fc1c(F)c(Br)c(F)c(F)c1Br	78 to 81
Cc1nc(C2CCN(C(=O)OC(C)(C)C)CC2)sc1CO	150 to 153
Cc1cccc(C)c1NC(=O)c1cnc(C(C)(C)C)c(Cl)n1	146
NC(Cc1cc(I)c(Oc2ccc(O)c(I)c2)c(I)c1)C(=O)O (stereo not given)	236
Cn1c(=O)c(C2=NNC(=O)C2)c(O)c2ccccc21	287
CCCc1c(C)nc(NC(=O)NS(=O)(=O)c2cccs2)nc1O	210 to 212
CC1CCC(C(C)C)C(OC(=O)C(C)O)C1 (single isomer, unassigned; (-))	40
O=C(Nc1ccccc1)OCCc1ccc(CCOC(=O)Nc2ccccc2)cc1	213
CCOC(=O)c1cc(C(=O)CBr)on1	71 to 73
NC(=O)c1nc(-c2ccccc2)n(-c2ccc(Cl)c(COCC(F)(F)C(F)(F)F)c2)n1	146
CCOC(=O)c1sc2sc(C(=O)OCC)c(N)c2c1N	200

Structure (SMILES)	melting point [°C]
Cn1c(=O)c(C2=NNC(=O)C2=NNc2ccc(Br)cc2)c(O)c2ccccc21	260
COc1ccc2cc(CCC(C)=O)ccc2c1	80
Nc1cc(N)cc(C(F)(F)F)c1	88 to 89
ClC1CCC(Cl)CC1 (stereo not given)	18
CN=C(NC)NCc1ccccc1	196
Brc1cccc2c(CNCc3cccc4c(Br)cccc34)cccc12	142
NNC(=S)Nc1cccc(F)c1	164 to 166
O=[N+]([O-])C=Cc1ccccc1C(F)(F)F	60 to 62
CCCCCCCCCCCCCCCCCC(=O)Nc1ccc(O)cc1	134
OCc1ccc(-n2cncn2)cc1	124 to 125
O=[N+]([O-])c1ccc2c(c1)oc1ccccc12	182
O=[N+]([O-])/C=C/c1ccccc1	58
S=C(Nc1ccccc1)c1ccccc1	102
CCCCCCCCCCCCC#N	9.7
CCCCCCCC(C)CC (stereo not given)	-92.9
Cc1cc2c(o1)-c1c(oc3ccc(Cl)cc13)CCC2(C)c1ccccc1 (stereo not given)	128
CCCCCC=CC(=O)O	5 to 6
COc1c(C(C)(C)C)cc([N+](=O)[O-])c(C)c1[N+](=O)[O-]	85
CC(C)CSCC(C)C	-106
CCC1OC(=O)C(C)C(OC2OC(C)CC(N(C)C)C2O)C(C)CC(C)C(=O)C=CC1(C)O (stereo not given)	196
Cc1nc(-c2ccccc2)sc1Br	60

Continued, values first:

melting point [°C]	Structure (SMILES)
19	CCCCc1cc(C)ccc1O
179	O=C(O)c1cccc(O)c1[N+](=O)[O-]
198 to 200	Cc1nc(/C(C#N)=C\c2ccccc2Cl)sc1/N=N/c1ccc(Cl)cc1
26	O=C(Cl)c1cccc2ccccc12
118	CCOC(=O)C(=O)c1cc(C(=O)C(=O)OCC)c([N+](=O)[O-])cc1[N+](=O)[O-]
55 to 56	O=S(=O)(Cl)Cc1ccccc1F
293 to 295	Cc1ccc(C#N)c(=O)[nH]1
57 to 59	Cc1cc(Oc2ccc(C(F)(F)F)cc2[N+](=O)[O-])ccc1Cl
110	COc1cc(C(=O)c2ccc(C)cc2)c([N+](=O)[O-])cc1OC
99 to 104	COc1cc([N+](=O)[O-])ccc1O
222	CC1(C)CC(=O)C2=C(C1)Nc1c(ccc3ccccc13)C2c1ccc(Cl)cc1Cl (stereo not given)
106	CC(=O)c1ccc([N+](=O)[O-])s1
234 to 236	O=C1CCC(c2ccc(N=Cc3ccccc3[N+](=O)[O-])cc2)=NN1
89	Clc1cccc2cccc(Cl)c12
146 to 148	CC(=O)Nc1cc([N+](=O)[O-])c(F)cc1F
243	Cc1cc(NS(=O)(=O)c2ccc(N)cc2)nc(C)n1
7 to 9	O=C(c1ccccc1)C1CC1
166	Cc1ccc(C(N)=O)cc1[N+](=O)[O-]
130 to 132	COc1cc2c(cc1OC)C(c1ccc(Cl)cc1)N(C(C)=O)CC2 (stereo not given)
197	Cc1ccc(C(N)=O)cn1
154 to 156	Cc1c(C(=O)CBr)sc2ccc(Cl)cc12

melting point [°C]	Structure (SMILES)
36 to 41	Fc1cc(I)ccc1Br
133	O=C(Cc1cc(Cl)c([N+](=O)[O-])cc1[N+](=O)[O-])c1ccccc1
45.5	N#CCCCOc1ccccc1
130	O=[N+]([O-])c1cc(-c2ncco2)cc([N+](=O)[O-])c1
294	N#C/C(=C/c1cccc(O)c1)c1nc2ccccc2c(=O)[nH]1
134 to 136	CC(C)(C)c1ccc(Oc2ccc([N+](=O)[O-])cc2C=O)cc1
161 to 162	N#Cc1c(NC(=O)c2ccccc2Cl)sc2c1CCCC2
89 to 94	N#Cc1cc(Cl)ccc1[N+](=O)[O-]
132 to 134	O=C(O)Cc1ccc(O)c(F)c1
95 to 96	Cc1nc(-c2cccc(N)c2)no1
122 to 124	Cc1oc(-c2ccc(Cl)cc2)cc1C(=O)Cl
220	O=C(O)c1cc(-c2ccco2)[nH]n1
107 to 108	COC(=O)c1sc2ccccc2c1N
27	COc1ccc(Cl)c(N)c1
115	N#CC1(c2ccccc2)CCC(=O)CC1
79	O=C(O)c1cc(C(F)(F)F)ccc1C(F)(F)F
39	O=C1CCc2cc(F)ccc21
230	O=C(O)c1ccc(O)c([N+](=O)[O-])c1
70 to 76	O=C1CCc2cc(Br)ccc2C1
17.6	CC(=O)c1ccc(C)nc1
